From publication PMC4014147 (Environmental Science & Technology, 2014)

Experiments:
hERα and hERβ = assay: T47D-KBluc estrogen screening assay, luciferase reporter; conditions: YES-calibrated stock solutions
mERβ2 = target: T1, mERβ2 (Oryzias latipes, UniProt B1B6T4); assay: Competitive ligand binding assay; design: species or system medaka; conditions: for RBA (%) mERβ2: ratio of IC50 of E2β to IC50 of competitor
T1 sequence (B1B6T4 1-542): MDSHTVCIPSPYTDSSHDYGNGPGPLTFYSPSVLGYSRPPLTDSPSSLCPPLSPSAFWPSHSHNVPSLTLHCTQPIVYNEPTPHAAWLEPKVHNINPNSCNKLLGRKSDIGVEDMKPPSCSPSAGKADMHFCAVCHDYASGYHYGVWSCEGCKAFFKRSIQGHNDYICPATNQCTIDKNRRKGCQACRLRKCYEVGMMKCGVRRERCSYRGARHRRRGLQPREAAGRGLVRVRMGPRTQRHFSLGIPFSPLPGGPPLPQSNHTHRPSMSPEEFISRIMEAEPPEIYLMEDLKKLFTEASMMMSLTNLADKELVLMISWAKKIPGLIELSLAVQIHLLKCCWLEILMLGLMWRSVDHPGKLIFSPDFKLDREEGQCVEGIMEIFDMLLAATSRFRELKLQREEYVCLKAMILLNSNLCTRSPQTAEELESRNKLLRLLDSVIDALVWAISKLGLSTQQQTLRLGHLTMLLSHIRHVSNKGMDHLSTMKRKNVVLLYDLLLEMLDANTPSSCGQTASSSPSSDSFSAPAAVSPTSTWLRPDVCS

[1] = tested on: hepatic gene expression in male Japanese medaka; assay: Medaka 7-day waterborne exposure, hepatic gene expression by qPCR; format: in vivo, Japanese medaka (Oryzias latipes)
mERα = target: T2, mERα (Oryzias latipes, UniProt P50241); assay: biochemical; format: binding, medaka
T2 sequence (P50241 1-620): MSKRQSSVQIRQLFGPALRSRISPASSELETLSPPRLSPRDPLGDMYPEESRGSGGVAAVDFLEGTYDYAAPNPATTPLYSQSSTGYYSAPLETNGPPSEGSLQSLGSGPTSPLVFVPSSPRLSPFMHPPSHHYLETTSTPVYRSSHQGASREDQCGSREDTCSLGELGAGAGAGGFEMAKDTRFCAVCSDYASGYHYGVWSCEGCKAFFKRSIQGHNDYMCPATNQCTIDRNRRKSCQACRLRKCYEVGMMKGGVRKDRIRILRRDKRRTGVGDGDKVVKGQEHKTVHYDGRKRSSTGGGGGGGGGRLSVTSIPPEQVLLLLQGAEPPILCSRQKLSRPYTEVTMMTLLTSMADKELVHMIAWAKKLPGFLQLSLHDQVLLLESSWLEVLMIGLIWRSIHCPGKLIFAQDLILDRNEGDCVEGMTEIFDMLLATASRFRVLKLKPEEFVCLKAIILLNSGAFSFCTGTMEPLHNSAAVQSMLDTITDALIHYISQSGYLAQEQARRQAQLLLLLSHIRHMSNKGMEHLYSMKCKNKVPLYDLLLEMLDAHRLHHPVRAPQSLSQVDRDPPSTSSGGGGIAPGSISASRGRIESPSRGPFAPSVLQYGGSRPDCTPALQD

mERβ1 = target: T3, mERβ1 (Oryzias latipes, UniProt A0ACM8PZQ7); assay: Competitive ligand binding assay; design: species or system medaka; conditions: for RBA (%) mERβ1: ratio of IC50 of E2β to IC50 of competitor
T3 sequence (A0ACM8PZQ7 1-562): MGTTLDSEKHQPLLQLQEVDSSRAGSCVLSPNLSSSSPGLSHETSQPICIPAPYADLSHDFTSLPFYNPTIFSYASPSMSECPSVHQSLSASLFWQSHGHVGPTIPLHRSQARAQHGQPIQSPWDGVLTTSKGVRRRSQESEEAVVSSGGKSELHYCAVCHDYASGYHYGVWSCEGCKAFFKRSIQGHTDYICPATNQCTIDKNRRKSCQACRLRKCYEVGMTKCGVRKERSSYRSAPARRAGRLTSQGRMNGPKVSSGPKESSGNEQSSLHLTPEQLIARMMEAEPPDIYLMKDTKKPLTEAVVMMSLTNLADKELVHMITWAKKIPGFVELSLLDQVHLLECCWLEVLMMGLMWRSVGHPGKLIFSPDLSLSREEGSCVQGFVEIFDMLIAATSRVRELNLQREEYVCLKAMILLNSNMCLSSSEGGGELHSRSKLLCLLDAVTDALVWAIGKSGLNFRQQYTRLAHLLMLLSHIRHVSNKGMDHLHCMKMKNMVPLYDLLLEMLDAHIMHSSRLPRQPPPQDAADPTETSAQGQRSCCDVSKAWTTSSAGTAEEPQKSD

mERα, mERβ1, and mERβ2 = assay: Ligand binding assays, comparison of affinity across mER subtypes; design: species or system medaka; conditions: from IC50 of competitive binding
[2] = male medaka liver, 7 days, YES-derived EEQ 0.64 nM, relative to negative control
[3] = liver of E2β-exposed male medaka, mERα expression as calibrator

| IC50 (mERβ2) [nM] | RBA (%) mERβ2 (mERβ2) [%] | IC50 (mERβ1) [nM] | RBA (%) mERβ1 (mERβ1) [%] | potency less in the T47D-KBluc versus the YES (hERα and hERβ) [fold] | higher affinity for mERβ1 versus mERβ2 (mERα, mERβ1, and mERβ2) [fold] | SMILES | more potent in the T47D-KBluc versus the YES (hERα and hERβ) | mERα induction [1, 2] [fold] | IC50 (mERα) [nM] | RBA (%) mERα (mERα; ratio of IC50 of E2β to IC50 of competitor) [%] | mERα expression above mERβ1 [1, 3] [fold] | mERα expression above mERβ2 [1, 3] [fold] | Chg-H gene induction [1, 2] | Chg-Hm gene induction [1, 2] | Chg-L gene induction [1, 2] [fold] | Vtg-1 gene induction [1, 2] | Vtg-2 gene induction [1, 2] |
| --- | --- | --- | --- | --- | --- | --- | --- | --- | --- | --- | --- | --- | --- | --- | --- | --- | --- |
| 31.1 | 6.8 | 18.8 | 9.6 | 3.3 | – | C[C@]12CC[C@@H]3c4ccc(O)cc4CC[C@H]3[C@@H]1CC[C@H]2O [E2α, 17α-estradiol] | – | 24 | – | – | – | – | – | – | – | – | – |
| 2.1 | 100.0 | 1.8 | 100.0 | – | – | C[C@]12CC[C@@H]3c4ccc(O)cc4CC[C@H]3[C@@H]1CC[C@@H]2O [E2β, 17β-estradiol] | – | 72 | – | – | 23 | 5 | 12,730 fold | 3,796 fold | 324 | 27,004 fold | 73,735 fold |
| 34.2 | 6.1 | 18.1 | 10.0 | – | 1.9 | C[C@]12CC[C@@H]3c4ccc(O)cc4CC[C@H]3[C@@H]1C[C@@H](O)[C@@H]2O [E3, estriol] | approximately 10 fold | 67 | – | – | – | – | – | – | – | – | – |

| SMILES | IC50 (mERβ2) [nM] | RBA (%) mERβ2 (mERβ2) [%] | IC50 (mERβ1) [nM] | RBA (%) mERβ1 (mERβ1) [%] | potency less in the T47D-KBluc versus the YES (hERα and hERβ) [fold] | higher affinity for mERβ1 versus mERβ2 (mERα, mERβ1, and mERβ2) [fold] | more potent in the T47D-KBluc versus the YES (hERα and hERβ) | mERα induction [1, 2] [fold] | IC50 (mERα) [nM] | RBA (%) mERα (mERα; ratio of IC50 of E2β to IC50 of competitor) [%] | mERα expression above mERβ1 [1, 3] [fold] | mERα expression above mERβ2 [1, 3] [fold] | Chg-H gene induction [1, 2] | Chg-Hm gene induction [1, 2] | Chg-L gene induction [1, 2] [fold] | Vtg-1 gene induction [1, 2] | Vtg-2 gene induction [1, 2] |
| --- | --- | --- | --- | --- | --- | --- | --- | --- | --- | --- | --- | --- | --- | --- | --- | --- | --- |
| C[C@]12CC[C@@H]3c4ccc(O)cc4CC[C@H]3[C@@H]1CCC2=O [E1, estrone] | 14.4 | 14.6 | 14.4 | 12.6 | – | – | slightly more potent | 56 | 8.4 | 36.7 | – | – | – | – | – | – | – |
